The supplement of paper PMC8149375

Legend:
Settings in all cases: treatment: drug alone; 5 days
769-P [1] = assay: GI50, drug alone; higher = less potent
Experimental: (§1)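 Primary HTS: 8 RCC cell lines treated with 8 doses (up to 10 uM) of each library drug alone for 5 days; viability read by CellTiter-Glo and normalised to DMSO. GI50 was fitted with XLfit (4-parameter), AUC is the area under the dose-response curve, and minimum viability is the lowest fraction of DMSO viability across doses.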

786-O [2] = assay: GI50, drug alone; higher = less potent
Experimental: as §1

A498 [3] = assay: GI50, drug alone; higher = less potent
Experimental: as §1

ACHN [4] = assay: GI50, drug alone; higher = less potent
Experimental: as §1

CAKI-1 [5] = assay: GI50, drug alone; higher = less potent
Experimental: as §1

SN12C [6] = assay: GI50, drug alone; higher = less potent
Experimental: as §1

TK-10 [7] = assay: GI50, drug alone; higher = less potent
Experimental: as §1

UO-31 [8] = assay: GI50, drug alone; higher = less potent
Experimental: as §1

769-P [9] = assay: minimum viability across doses, drug alone, relative to DMSO (fraction); higher = less growth inhibition
Experimental: as §1

786-O [10] = assay: as above
Experimental: as §1

A498 [11] = assay: as above
Experimental: as §1

ACHN [12] = assay: as above
Experimental: as §1

CAKI-1 [13] = assay: as above
Experimental: as §1

SN12C [14] = assay: as above
Experimental: as §1

TK-10 [15] = assay: as above
Experimental: as §1

UO-31 [16] = assay: as above
Experimental: as §1

769-P [17] = assay: AUC of dose-response viability curve, drug alone (arbitrary (AUC of normalised viability)); higher = less growth inhibition
Experimental: as §1

786-O [18] = assay: as above
Experimental: as §1

A498 [19] = assay: as above
Experimental: as §1

ACHN [20] = assay: as above
Experimental: as §1

CAKI-1 [21] = assay: as above
Experimental: as §1

SN12C [22] = assay: as above
Experimental: as §1

TK-10 [23] = assay: as above
Experimental: as §1

UO-31 [24] = assay: as above
Experimental: as §1

GI50, drug alone (786-O [2]) | GI50, drug alone (ACHN [4]) | Compound | GI50, drug alone (769-P [1]) | GI50, drug alone (A498 [3]) | GI50, drug alone (CAKI-1 [5]) | GI50, drug alone (SN12C [6]) | GI50, drug alone (TK-10 [7]) | GI50, drug alone (UO-31 [8]) | minimum viability across doses (769-P [9]) | minimum viability across doses (786-O [10]) | minimum viability across doses (A498 [11]) | minimum viability across doses (ACHN [12]) | minimum viability across doses (CAKI-1 [13]) | minimum viability across doses (SN12C [14]) | minimum viability across doses (TK-10 [15]) | minimum viability across doses (UO-31 [16]) | AUC of dose-response viability curve (769-P [17]) | AUC of dose-response viability curve (786-O [18]) | AUC of dose-response viability curve (A498 [19]) | AUC of dose-response viability curve (ACHN [20]) | AUC of dose-response viability curve (CAKI-1 [21]) | AUC of dose-response viability curve (SN12C [22]) | AUC of dose-response viability curve (TK-10 [23]) | AUC of dose-response viability curve (UO-31 [24])
0.915 µM | 3.39 µM | CCc1cccc(CC)c1NC(=O)N1Cc2[nH]nc(NC(=O)c3ccc(N4CCN(C)CC4)cc3)c2C1 | > 10 µM | > 10 µM | 2.92 µM | 2.15 µM | 5.38 µM | > 10 µM | 0.87 | 0.0395 | 0.679 | 0.233 | 0.262 | 0.238 | 0.336 | 0.811 | 3.41 | 2.21 | 3.29 | 2.85 | 2.76 | 2.76 | 2.92 | 3.85
5.22 µM | 0.0547 µM | Cc1[nH]c(/C=C2/C(=O)Nc3ccc(S(=O)(=O)N(C)c4cccc(Cl)c4)cc32)c(C)c1C(=O)N1CCN(C)CC1 | > 10 µM | > 10 µM | 8.22 µM | 8.02 µM | > 10 µM | > 10 µM | 0.763 | 0.265 | 0.916 | 0.247 | 0.425 | 0.412 | 0.753 | 1.15 | 3.4 | 2.76 | 3.89 | 2.06 | 3.3 | 3.01 | 3.36 | 4.97

Second part, the compound before the results:

Compound | GI50, drug alone (786-O [2]) | GI50, drug alone (ACHN [4]) | GI50, drug alone (769-P [1]) | GI50, drug alone (A498 [3]) | GI50, drug alone (CAKI-1 [5]) | GI50, drug alone (SN12C [6]) | GI50, drug alone (TK-10 [7]) | GI50, drug alone (UO-31 [8]) | minimum viability across doses (769-P [9]) | minimum viability across doses (786-O [10]) | minimum viability across doses (A498 [11]) | minimum viability across doses (ACHN [12]) | minimum viability across doses (CAKI-1 [13]) | minimum viability across doses (SN12C [14]) | minimum viability across doses (TK-10 [15]) | minimum viability across doses (UO-31 [16]) | AUC of dose-response viability curve (769-P [17]) | AUC of dose-response viability curve (786-O [18]) | AUC of dose-response viability curve (A498 [19]) | AUC of dose-response viability curve (ACHN [20]) | AUC of dose-response viability curve (CAKI-1 [21]) | AUC of dose-response viability curve (SN12C [22]) | AUC of dose-response viability curve (TK-10 [23]) | AUC of dose-response viability curve (UO-31 [24])
COc1cc(Nc2ncc(F)c(Nc3ccc4c(n3)N(COP(=O)([O-])[O-])C(=O)C(C)(C)O4)n2)cc(OC)c1OC.[Na+].[Na+] | 1.24 µM | 0.973 µM | 5.08 µM | > 10 µM | 1.02 µM | 3.32 µM | 5.18 µM | 9.63 µM | 0.119 | 0.125 | 0.898 | 0.0693 | 0.035 | 0.303 | 0.418 | 0.0974 | 3.1 | 2.1 | 3.85 | 2.42 | 2.49 | 2.73 | 2.53 | 4
CNC(=O)c1ccc(C)c(-n2c(C)cc(OCc3ccc(F)cc3F)c(Br)c2=O)c1 | < 0.003 µM | 4.72 µM | > 10 µM | > 10 µM | > 10 µM | > 10 µM | > 10 µM | > 10 µM | 0.765 | 0.437 | 1.12 | 0.464 | 0.705 | 0.738 | 0.596 | 0.835 | 3.15 | 1.88 | 4.54 | 2.53 | 3.1 | 2.94 | 2.51 | 3.74
Cc1cccc(-c2nc(C(C)(C)C)[nH]c2-c2ccc3nccnc3c2)n1 | > 10 µM | > 10 µM | > 10 µM | 9.45 µM | > 10 µM | 5.55 µM | > 10 µM | > 10 µM | 0.795 | 0.589 | 0.302 | 0.87 | 0.603 | 0.21 | 0.676 | 0.569 | 3.25 | 2.63 | 3.88 | 3.38 | 3.35 | 3.02 | 2.9 | 5.79
